Assay results published in ChEMBL document CHEMBL5724696, “Autophagy assay results for EUbOPEN Chemogenomics Library” (2024).

Assays:
Format in all cases: functional, Homo sapiens
TERT-RPE1 = test: (§1) Here: values are normalized to the negative (DMSO; defined as 0% autophagy induction) and positive (250nM Torin1; mTOR inhibitor; defined as maximal inducer of autophagy = 100%) control compounds and represented as % of autophagy induction. […] The impact of autophagy induction on cells is complex and depends on the affected target. As such, the magnitude of a phenotype may not be equally mirrored in the %-value of autophagy induction and vice versa. The dynamics of the induction may indicate the mode of activation: e.g. activation via phosphorylation or a signaling cascade may occur fast, while activation via transcription factors may take considerably longer. […] Of note, treatment concentrations may be sub-optimal for specific compounds, leading to false negative annotations.; conditions: Culturing Media DMEM/F12 (1:1), 1 % Penicillin/Streptomycin, 10% Fetal bovin serum Add-On: No, Screening Media Control DMEM/F12 (1:1), Screening Media Samples DMEM/F12 (1:1)
U2OS [1] = test: as §1; conditions: Culturing Media DMEM, 1 % Penicillin/Streptomycin, 10% Fetal bovin serum Add-On: No, Screening Media Control DMEM, Screening Media Samples DMEM
U2OS [2] = test: as §1; conditions: Culturing Media DMEM, 1 % Penicillin/Streptomycin, 10% Fetal bovin serum Add-On: No, Screening Media Control DMEM, Screening Media Samples DMEM; remark: listed apart in the source
[3] = Compound Concentration 0.5 uM, Timepoint 12 hours
[4] = Compound Concentration 0.5 uM, Timepoint 24 hours
[5] = Compound Concentration 0.5 uM, Timepoint 36 hours
[6] = Compound Concentration 0.5 uM, Timepoint 60 hours
[7] = Compound Concentration 2 uM, Timepoint 12 hours
[8] = Compound Concentration 2 uM, Timepoint 24 hours
[9] = Compound Concentration 2 uM, Timepoint 36 hours
[10] = Compound Concentration 2 uM, Timepoint 60 hours
[11] = Compound Concentration 10 uM, Timepoint 12 hours
[12] = Compound Concentration 10 uM, Timepoint 24 hours
[13] = Compound Concentration 10 uM, Timepoint 36 hours
[14] = Compound Concentration 10 uM, Timepoint 60 hours

**Q.** How did the autophagy induction (TERT-RPE1; [3]) turn out when `CN(C(=O)Cc1ccc(Cl)c(Cl)c1)C(CN1CCCC1)c1cccc(OCC(=O)O)c1.Cl` (configuration not stated) was run?
**A.** -10.9051%

**Q.** And the autophagy induction (TERT-RPE1; [4])?
**A.** -12.2301%

**Q.** What about the autophagy induction (TERT-RPE1; [5]) of the same compound?
**A.** -15.6398%

**Q.** What about the autophagy induction (TERT-RPE1; [6]) of the same compound?
**A.** -20.341%

**Q.** What about the autophagy induction (TERT-RPE1; [7]) of the same compound?
**A.** -5.691%

**Q.** And the autophagy induction (TERT-RPE1; [8])?
**A.** -6.772%

**Q.** And the autophagy induction (TERT-RPE1; [9])?
**A.** -9.058%

**Q.** And the autophagy induction (TERT-RPE1; [10])?
**A.** -11.2679%

**Q.** What about the autophagy induction (TERT-RPE1; [11]) of the same compound?
**A.** -5.196%

**Q.** What about the autophagy induction (TERT-RPE1; [12]) of the same compound?
**A.** -4.57%

**Q.** And the autophagy induction (TERT-RPE1; [13])?
**A.** -3.728%

**Q.** What about the autophagy induction (TERT-RPE1; [14]) of the same compound?
**A.** -2.992%

**Q.** And the autophagy induction (U2OS [1]; [3])?
**A.** -12.8922%

**Q.** What about the autophagy induction (U2OS [1]; [4]) of the same compound?
**A.** -7.849%

**Q.** And the autophagy induction (U2OS [1]; [5])?
**A.** -3.698%

**Q.** And the autophagy induction (U2OS [1]; [6])?
**A.** -1.542%

**Q.** And the autophagy induction (U2OS [1]; [7])?
**A.** -9.267%

**Q.** What about the autophagy induction (U2OS [1]; [8]) of the same compound?
**A.** -3.553%

**Q.** And the autophagy induction (U2OS [1]; [9])?
**A.** -1.479%

**Q.** What about the autophagy induction (U2OS [1]; [10]) of the same compound?
**A.** -2.0456%

**Q.** And the autophagy induction (U2OS [1]; [11])?
**A.** -0.2023%

**Q.** What about the autophagy induction (U2OS [1]; [12]) of the same compound?
**A.** 1.762%

**Q.** And the autophagy induction (U2OS [1]; [13])?
**A.** 0.1182%

**Q.** And the autophagy induction (U2OS [1]; [14])?
**A.** 0.3636%

**Q.** What about the autophagy induction (U2OS [2]; [3]) of the same compound?
**A.** 2.144%

**Q.** What about the autophagy induction (U2OS [2]; [4]) of the same compound?
**A.** -2.707%

**Q.** What about the autophagy induction (U2OS [2]; [5]) of the same compound?
**A.** 1.07%

**Q.** What about the autophagy induction (U2OS [2]; [6]) of the same compound?
**A.** 1.175%

**Q.** And the autophagy induction (U2OS [2]; [7])?
**A.** -9.959%

**Q.** And the autophagy induction (U2OS [2]; [8])?
**A.** -4.957%

**Q.** And the autophagy induction (U2OS [2]; [9])?
**A.** -10.0899%

**Q.** What about the autophagy induction (U2OS [2]; [10]) of the same compound?
**A.** -9.274%

**Q.** What about the autophagy induction (U2OS [2]; [11]) of the same compound?
**A.** -7.228%

**Q.** What about the autophagy induction (U2OS [2]; [12]) of the same compound?
**A.** -6.505%

**Q.** And the autophagy induction (U2OS [2]; [13])?
**A.** 0.1565%

**Q.** And the autophagy induction (U2OS [2]; [14])?
**A.** 0.07233%

**Q.** Which results are given for `N#Cc1c(N)nc(SCC(N)=O)c(C#N)c1-c1ccc(OCC2CC2)cc1`?
**A.** autophagy induction (TERT-RPE1; [3]): -0.3512%; autophagy induction (TERT-RPE1; [4]): -0.4647%; autophagy induction (TERT-RPE1; [5]): -3.4426%; autophagy induction (TERT-RPE1; [6]): -13.7976%; autophagy induction (TERT-RPE1; [7]): 6.426%; autophagy induction (TERT-RPE1; [8]): 7.278%; autophagy induction (TERT-RPE1; [9]): 5.568%; autophagy induction (TERT-RPE1; [10]): -4.471%; autophagy induction (TERT-RPE1; [11]): 18.2835%; autophagy induction (TERT-RPE1; [12]): 21.4433%; autophagy induction (TERT-RPE1; [13]): 22.9122%; autophagy induction (TERT-RPE1; [14]): 26.9726%; autophagy induction (U2OS [1]; [3]): 1.815%; autophagy induction (U2OS [1]; [4]): -1.199%; autophagy induction (U2OS [1]; [5]): -2.125%; autophagy induction (U2OS [1]; [6]): -2.448%; autophagy induction (U2OS [1]; [7]): 4.971%; autophagy induction (U2OS [1]; [8]): 0.9116%; autophagy induction (U2OS [1]; [9]): -0.4866%; autophagy induction (U2OS [1]; [10]): -0.2456%; autophagy induction (U2OS [1]; [11]): 12.9304%; autophagy induction (U2OS [1]; [12]): 7.609%; autophagy induction (U2OS [1]; [13]): 1.394%; autophagy induction (U2OS [1]; [14]): 0.5911%; autophagy induction (U2OS [2]; [3]): 13.384%; autophagy induction (U2OS [2]; [4]): 10.3272%; autophagy induction (U2OS [2]; [5]): 7.6764%; autophagy induction (U2OS [2]; [6]): 5.5559%; autophagy induction (U2OS [2]; [7]): 6.979%; autophagy induction (U2OS [2]; [8]): 4.233%; autophagy induction (U2OS [2]; [9]): 4.058%; autophagy induction (U2OS [2]; [10]): 1.654%; autophagy induction (U2OS [2]; [11]): 28.6221%; autophagy induction (U2OS [2]; [12]): 28.519%; autophagy induction (U2OS [2]; [13]): 26.7564%; autophagy induction (U2OS [2]; [14]): 32.3548%
